Measurements: US11930814B2, “Pesticidal mixtures comprising cyanosulfoximine compounds” (BASF SE, priority 2007, dated 2024)

Experiments:
Assay type in all cases: in vivo
[1] = test system: Mediterranean fruitfly (Ceratitis capitata); assay: Test B.4: control of Mediterranean fruitfly, insect diet with eggs in microtiter plates; details: 5 days
Experimental: For evaluating control of Mediterranean fruitfly (Ceratitis capitata) the test unit consisted of well-microtiter plates containing an insect diet and 50-80 C. capitata eggs. The compounds or mixtures were formulated using a solution containing 75 wt % water and 25 wt % DMSO. Different concentrations of formulated compounds or mixtures were sprayed onto the insect diet at 5 μl, using a custom built micro atomizer, at two replications.
(§1) For experimental mixtures in these tests identical volumes of both mixing partners at the desired concentrations respectively, were mixed together.
After application, microtiter plates were incubated at 28±1° C., 80±5% RH for 5 days. Egg and larval mortality was then visually assessed.

[2] = test system: boll weevil (Anthonomus grandis); assay: Test B.3: control of boll weevil, insect diet with eggs in microtiter plates; details: 5 days
Experimental: For evaluating control of boll weevil (Anthonomus grandis) the test unit consisted of well-microtiter plates containing an insect diet and 20-30 A. grandis eggs.
The compounds or mixtures were formulated using a solution containing 75 wt % water and 25 wt % DMSO. Different concentrations of formulated compounds or mixtures were sprayed onto the insect diet at 20 μl, using a custom built micro atomizer, at two replications.
as §1
After application, microtiter plates were incubated at 23±1° C., 50±5% RH for 5 days. Egg and larval mortality was then visually assessed.

[3] = test system: vetch aphid (Megoura viciae); assay: Test B.1: control of vetch aphid on broad bean leaf disks in microtiter plates (contact or systemic); details: 5 days
Experimental: For evaluating control of vetch aphid (Megoura viciae) through contact or systemic means the test unit consisted of microtiter plates containing broad bean leaf disks. The compounds or mixtures were formulated using a solution containing 75 wt % water and 25 wt % DMSO. Different concentrations of formulated compounds or mixtures were sprayed onto the leaf disks at 2.5 μl, using a custom built micro atomizer, at two replications.
as §1
After application, the leaf disks were air-dried and 5-8 adult aphids placed on the leaf disks inside the microtiter plate wells. The aphids were then allowed to suck on the treated leaf disks and incubated at 23±1° C., 50±5% RH (relative humidity) for 5 days. Aphid mortality and fecundity was then visually assessed.

[4] = test system: green peach aphid (Myzus persicae); assay: Test B.2: control of green peach aphid through systemic means, artificial diet under membrane in microtiter plates; details: 3 days
From the text: For evaluating control of green peach aphid (Myzus persicae) through systemic means the test unit consisted of microtiter plates containing liquid artificial diet under an artificial membrane.
The compounds or mixtures were formulated using a solution containing 75 wt % water and 25 wt % DMSO. Different concentrations of formulated compounds or mixtures were pipetted into the aphid diet, using a custom built pipetter, at two replications. For experimental mixtures in these tests identical volumes of both mixing partners at the desired concentrations respectively, were mixed together.
After application, 5-8 adult aphids were placed on the artificial membrane inside the microtiter plate wells. The aphids were then allowed to suck on the treated aphid diet and incubated at 23±1° C., 50±5% RH for 3 days. Aphid mortality and fecundity was then visually assessed.

[5] = 4 + 0 ppm (compound II + compound I), compound II alone
[6] = 2 + 0 ppm (compound II + compound I), compound II alone
[7] = 0.4 + 0 ppm (compound II + compound I), compound II alone
[8] = 0.08 + 0 ppm (compound II + compound I), compound II alone
[9] = 200 + 0 ppm (compound II + compound I), compound II alone
[10] = 0 + 0.8 ppm (compound II + compound I), compound I alone
[11] = 0 + 20 ppm (compound II + compound I), compound I alone

O=[N+]([O-])NC1=NCCN1Cc1ccc(Cl)nc1 [Imidacloprid, imidacloprid]
Average Control % [1, 5]: 0%
Average Control % [2, 6]: 25%

CC1(C)C(C=C(Cl)Cl)C1C(=O)OC(C#N)c1cccc(Oc2ccccc2)c1 (stereo not drawn) [Alphacypermethrin, alpha-cypermethrin]
Average Control % [3, 6]: 0%
Average Control % [1, 7]: 0%

N#Cc1nn(-c2c(Cl)cc(C(F)(F)F)cc2Cl)c(N)c1[S+]([O-])C(F)(F)F (centres unmarked) [Fipronil, fipronil]
Average Control % [3, 6]: 25%

CN1COCN(Cc2cnc(Cl)s2)/C1=N\[N+](=O)[O-] [Thiamethoxam, thiamethoxam]
Average Control % [4, 8]: 0%

CNC(=O)c1cc(C#N)cc(C)c1NC(=O)c1cc(Br)nn1-c1ncccc1Cl [Compound II.A^13.1]
Average Control % [1, 7]: 0%

CC(C)(C)c1ccc(CSc2cnn(C(C)(C)C)c(=O)c2Cl)cc1 [Pyridaben, pyridaben]
Average Control % [3, 9]: 50%
Average Control % [1, 9]: 50%

CC(c1ccc(Cl)nc1)S(C)(=O)=NC#N (centres unmarked) [Compound C.I.2]
Average Control % [3, 10]: 0%
Average Control % ([1]; 0 + 10 ppm (compound II + compound I), compound I alone): 0%
Average Control % [1, 11]: 0%

CS(=O)(Cc1ccc(Cl)nc1)=NC#N (centres unmarked) [Compound C.I.1]
Average Control % [3, 10]: 0%
Average Control % ([1]; 0 + 4 ppm (compound II + compound I), compound I alone): 0%
Average Control % [1, 11]: 0%
Average Control % [4, 11]: 50%
Average Control % [2, 11]: 0%

CCOC(=O)OC1=C(c2cc(C)ccc2C)C(=O)N[C@]12CC[C@@H](OC)CC2 [Spirotetramat, spirotetramat]
Average Control % ([3]; 100 + 0 ppm (compound II + compound I), compound II alone): 50%
Average Control % [4, 5]: 0%

CNC(=O)c1cc(Cl)cc(C)c1NC(=O)c1cc(Br)nn1-c1ncccc1Cl [Rynaxypyr]
Average Control % [4, 8]: 0%
